System: NCI-H196 complex spheroid viability
Test: Anticancer human tumor NCI-H196 cell line growth inhibition [LSD1];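 further: spheroids exposed to agents for 7 days before readout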;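 on viability, T/C: 100% = DMSO vehicle control viability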
Conditions: for IC50: curve of first compound; for viability, T/C: stronger effect = lower value
Procedure, shortened: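 Complex spheroids of tumor cells with HUVEC and human MSCs, exposed to iadademstat combined with other agents. Each agent tested in half-log steps from near clinical Cmax (else 10 microM top), DMSO ≤0.25%.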

[1] = second compound 0.1 µM, first compound 0.00949 µM
[2] = second compound 0.1 µM, first compound 0.03 µM
[3] = second compound 0.1 µM, first compound 0.0949 µM
[4] = second compound 0.1 µM, first compound 0.3 µM
[5] = second compound 0.1 µM, first compound 0.949 µM
[6] = second compound 0.1 µM, first compound 3 µM
[7] = second compound 0.316 µM, first compound 0.00949 µM
[8] = second compound 0.316 µM, first compound 0.03 µM
[9] = second compound 0.316 µM, first compound 0.0949 µM
[10] = second compound 0.316 µM, first compound 0.3 µM
[11] = second compound 0.316 µM, first compound 0.949 µM
[12] = second compound 0.316 µM, first compound 3 µM
[13] = second compound 1 µM, first compound 0.00949 µM
[14] = second compound 1 µM, first compound 0.03 µM
[15] = second compound 1 µM, first compound 0.0949 µM
[16] = second compound 1 µM, first compound 0.3 µM
[17] = second compound 1 µM, first compound 0.949 µM
[18] = second compound 1 µM, first compound 3 µM
[19] = second compound 3.16 µM, first compound 0.00949 µM
[20] = second compound 3.16 µM, first compound 0.03 µM
[21] = second compound 3.16 µM, first compound 0.0949 µM
[22] = second compound 3.16 µM, first compound 0.3 µM
[23] = second compound 3.16 µM, first compound 0.949 µM
[24] = second compound 3.16 µM, first compound 3 µM
[25] = second compound 10 µM, first compound 0.00949 µM
[26] = second compound 10 µM, first compound 0.03 µM
[27] = second compound 10 µM, first compound 0.0949 µM
[28] = second compound 10 µM, first compound 0.3 µM
[29] = second compound 10 µM, first compound 0.949 µM
[30] = second compound 10 µM, first compound 3 µM

COc1cc(Nc2ncc3c(n2)-c2ccc(Cl)cc2C(c2c(F)cccc2OC)=NC3)ccc1C(=O)O + NC1CC1c1ccc(-c2cccc(O)c2)cc1
IC50 (second compound 0.1 µM): > 1 µM
IC50 (second compound 0.316 µM): > 1 µM
IC50 (second compound 1 µM): > 1 µM
IC50 (second compound 3.16 µM): > 1 µM
IC50 (second compound 10 µM): > 1 µM
viability, T/C (second compound 0.1 µM, first compound 0.00316 µM): 88.2%
viability, T/C (second compound 0.1 µM, first compound 0.01 µM): 92.9%
viability, T/C (second compound 0.1 µM, first compound 0.0316 µM): 105%
viability, T/C (second compound 0.1 µM, first compound 0.1 µM): 104%
viability, T/C (second compound 0.1 µM, first compound 0.316 µM): 121%
viability, T/C (second compound 0.1 µM, first compound 1 µM): 143%
viability, T/C (second compound 0.316 µM, first compound 0.00316 µM): 87.3%
viability, T/C (second compound 0.316 µM, first compound 0.01 µM): 97.6%
viability, T/C (second compound 0.316 µM, first compound 0.0316 µM): 109%
viability, T/C (second compound 0.316 µM, first compound 0.1 µM): 113%
viability, T/C (second compound 0.316 µM, first compound 0.316 µM): 120%
viability, T/C (second compound 0.316 µM, first compound 1 µM): 119%
viability, T/C (second compound 1 µM, first compound 0.00316 µM): 93%
viability, T/C (second compound 1 µM, first compound 0.01 µM): 115%
viability, T/C (second compound 1 µM, first compound 0.0316 µM): 118%
viability, T/C (second compound 1 µM, first compound 0.1 µM): 126%
viability, T/C (second compound 1 µM, first compound 0.316 µM): 116%
viability, T/C (second compound 1 µM, first compound 1 µM): 118%
viability, T/C (second compound 3.16 µM, first compound 0.00316 µM): 98.5%
viability, T/C (second compound 3.16 µM, first compound 0.01 µM): 104%
viability, T/C (second compound 3.16 µM, first compound 0.0316 µM): 108%
viability, T/C (second compound 3.16 µM, first compound 0.1 µM): 110%
viability, T/C (second compound 3.16 µM, first compound 0.316 µM): 124%
viability, T/C (second compound 3.16 µM, first compound 1 µM): 112%
viability, T/C (second compound 10 µM, first compound 0.00316 µM): 98.3%
viability, T/C (second compound 10 µM, first compound 0.01 µM): 114%
viability, T/C (second compound 10 µM, first compound 0.0316 µM): 112%
viability, T/C (second compound 10 µM, first compound 0.1 µM): 119%
viability, T/C (second compound 10 µM, first compound 0.316 µM): 125%
viability, T/C (second compound 10 µM, first compound 1 µM): 118%

NS(=O)(=O)OCC1CC(n2ccc3c(NC4CCc5ccccc54)ncnc32)CC1O (stereo not given) + NC1CC1c1ccc(-c2cccc(O)c2)cc1
IC50 (second compound 0.1 µM): > 3 µM
IC50 (second compound 0.316 µM): > 3 µM
IC50 (second compound 1 µM): > 3 µM
IC50 (second compound 3.16 µM): > 3 µM
IC50 (second compound 10 µM): > 3 µM
viability, T/C [1]: 83.6%
viability, T/C [2]: 103%
viability, T/C [3]: 68%
viability, T/C [4]: 82.2%
viability, T/C [5]: 75.1%
viability, T/C [6]: 57.5%
viability, T/C [7]: 77.8%
viability, T/C [8]: 99.8%
viability, T/C [9]: 69.7%
viability, T/C [10]: 80.5%
viability, T/C [11]: 79.7%
viability, T/C [12]: 60.7%
viability, T/C [13]: 72.3%
viability, T/C [14]: 83.9%
viability, T/C [15]: 66.2%
viability, T/C [16]: 72%
viability, T/C [17]: 66%
viability, T/C [18]: 63.6%
viability, T/C [19]: 71.6%
viability, T/C [20]: 68.1%
viability, T/C [21]: 64.3%
viability, T/C [22]: 68.7%
viability, T/C [23]: 56%
viability, T/C [24]: 64.3%
viability, T/C [25]: 64.4%
viability, T/C [26]: 87.9%
viability, T/C [27]: 58.6%
viability, T/C [28]: 65.8%
viability, T/C [29]: 63%
viability, T/C [30]: 57%

COc1cc(C2c3cc4c(cc3C(OC3OC5COC(C)OC5C(O)C3O)C3COC(=O)C23)OCO4)cc(OC)c1O (stereo not given) + NC1CCC(NC2CC2c2ccccc2)CC1
IC50 (second compound 0.1 µM): > 3 µM
IC50 (second compound 0.316 µM): > 3 µM
IC50 (second compound 1 µM): > 3 µM
IC50 (second compound 3.16 µM): > 3 µM
IC50 (second compound 10 µM): > 3 µM
viability, T/C [1]: 94.1%
viability, T/C [2]: 97.2%
viability, T/C [3]: 113%
viability, T/C [4]: 104%
viability, T/C [5]: 87.1%
viability, T/C [6]: 59.7%
viability, T/C [7]: 102%
viability, T/C [8]: 90.1%
viability, T/C [9]: 104%
viability, T/C [10]: 104%
viability, T/C [11]: 94.7%
viability, T/C [12]: 66.1%
viability, T/C [13]: 89.5%
viability, T/C [14]: 105%
viability, T/C [15]: 98.8%
viability, T/C [16]: 103%
viability, T/C [17]: 93.4%
viability, T/C [18]: 70.3%
viability, T/C [19]: 120%
viability, T/C [20]: 91.2%
viability, T/C [21]: 104%
viability, T/C [22]: 110%
viability, T/C [23]: 89.6%
viability, T/C [24]: 55.9%
viability, T/C [25]: 103%
viability, T/C [26]: 91.9%
viability, T/C [27]: 95.5%
viability, T/C [28]: 96.3%
viability, T/C [29]: 81.6%
viability, T/C [30]: 59.1%
